Source: ChEMBL document CHEMBL5096148, “Natural Products with Potential to Treat RNA Virus Pathogens Including SARS-CoV-2” (J Nat Prod, 2021)
Converted amounts (≈) assume the structure as drawn.

Columns and labels:
dengue virus type 2 [1] = assay: Antiviral activity against DENV-2 infected in Baby hamster BHK cells assessed as reduction in virus-induced cytopathic effect; assay type: functional, organism-based
Ebolavirus [2] = assay: Antiviral activity against EBOV; assay type: functional, organism-based; conditions: Orthoebolavirus
dengue virus type 2 [3] = assay: Antiviral activity against DENV2 infected in human A549 cells at 25 uM incubated for 24 hrs by plaque assay relative to control; assay type: functional
Ebolavirus [4] = assay: Antiviral activity against pseudo typed EBOV infected in human HEK293T cells assessed as inhibition of viral growth; assay type: functional, organism-based; conditions: Orthoebolavirus, HEK-293T
Marburgvirus [5] = assay: Antiviral activity against Marburg virus; assay type: functional, organism-based; conditions: Orthomarburgvirus
SARS-CoV [6] = assay: Antiviral activity against SARS-CoV assessed as reduction in virus-induced cytopathic effect; assay type: functional, organism-based; conditions: Severe acute respiratory syndrome-related coronavirus
Ebolavirus [7] = assay: Antiviral activity against EBOV infected in human A549 cells assessed as inhibition of viral growth; assay type: functional, organism-based; conditions: Orthoebolavirus
Marburgvirus [8] = assay: Antiviral activity against MARV infected in human A549 cells assessed as inhibition of viral growth; assay type: functional, organism-based; conditions: Orthomarburgvirus
Ebolavirus [9] = assay: Antiviral activity against EBOV infected in Vero E6 cells assessed as reduction in virus titer incubated for 5 days by immunofocus assay; assay type: functional, organism-based; conditions: Orthoebolavirus, Vero C1008, 120 h
Ebolavirus [10] = assay: Antiviral activity against EBOV infected in HMVEC cells; assay type: functional, organism-based; conditions: Orthoebolavirus
Ebolavirus [11] = assay: Antiviral activity against EBOV Kikwit by high-content image analysis; assay type: functional, organism-based; conditions: Orthoebolavirus
Sudan ebolavirus = assay: Antiviral activity against SUDV Boniface by high-content image analysis; assay type: functional
Marburgvirus [12] = assay: Antiviral activity against MARV musoke by high-content image analysis; assay type: functional, organism-based; conditions: Orthomarburgvirus
dengue virus type 2 [13] = assay: Antiviral activity against DENV2 new Guinea by neutral red uptake analysis; assay type: functional, organism-based
SARS-CoV [14] = assay: Antiviral activity against SARS-Cov urbani by neutral red uptake analysis; assay type: functional, organism-based; conditions: Severe acute respiratory syndrome-related coronavirus
[15] = test system: Middle East respiratory syndrome-related coronavirus; assay: Antiviral activity against MERS-CoV jordan N3 by high-content image analysis; assay type: functional, organism-based
Ebolavirus [16] = assay: Antiviral activity against pseudo typed EBOV infected in human A549 cells assessed as inhibition of viral growth; assay type: functional, organism-based; conditions: Orthoebolavirus

CN[C@@H]1[C@@H](O)[C@H](O[C@@H]2[C@@H](O)[C@H](O[C@H]3O[C@H]([C@H](C)O)[C@@H](O)[C@H](O)[C@H]3N)[C@@H](N)C[C@H]2N)OC[C@]1(C)O
EC50 (dengue virus type 2 [1]): 3 µg/mL (≈ 6.04 µM)

C=CCc1ccc(O)c(OC)c1 [EUGENOL]
EC50 (Ebolavirus [2]): 1.3 µM

C[C@H](CC[C@H](O)[C@](C)(O)CO)[C@H]1CC[C@@]2(C)C3=CC[C@H]4C(C)(C)C(=O)CC[C@]4(C)C3=CC[C@]12C [GANODERMANONTRIOL]
Activity (dengue virus type 2 [3]): 25%

C#CN(CCCC1(C)N=N1)C(=O)[C@]12CCC(C)(C)C[C@H]1C1=CC[C@@H]3[C@@]4(C)CCC(=O)C(C)(C)[C@@H]4CC[C@@]3(C)[C@]1(C)CC2=O
IC50 (Ebolavirus [4]): 0.467 µM
IC50 (Marburgvirus [5]): 5.52 µM

O[C@H]1[C@H]2c3cc4c(cc3CN3CCC(=C[C@@H]1O)[C@H]23)OCO4 [LYCORINE]
EC50 (SARS-CoV [6]): 0.0157 µM

O=c1oc2c(O)c(O)cc3c(=O)oc4c(O)c(O)cc1c4c23 [ELLAGIC ACID]
IC50 (Ebolavirus [7]): 1.4 µM
IC50 (Marburgvirus [8]): 6.4 µM

NC(=O)c1nc(F)cnc1O
IC50 (Ebolavirus [9]): 67 µM
IC90 (Ebolavirus [9]; time 5 day): 110 µM

CCC(CC)COC(=O)[C@H](C)N[P@](=O)(OC[C@H]1O[C@@](C#N)(c2ccc3c(N)ncnn23)[C@H](O)[C@@H]1O)Oc1ccccc1
EC50 (Ebolavirus [10]): 0.06 µM

Nc1ncnc2c([C@@H]3N[C@H](CO)[C@@H](O)[C@H]3O)c[nH]c12
EC50 (Ebolavirus [11]): 11.8 µM
EC50 (Sudan ebolavirus): 3.4 µM
EC50 (Marburgvirus [12]): 4.4 µM
EC50 (dengue virus type 2 [13]): 32.8 µM
EC50 (SARS-CoV [14]): 57.7 µM
EC50 [15]: 68.4 µM

C=C(C)O[C@@H]1[C@@H](OC(C)=O)[C@H](NC(=O)[C@]23CCC(C)(C)C[C@H]2C2=CC[C@@H]4[C@@]5(C)CCC(=O)C(C)(C)[C@@H]5CC[C@@]4(C)[C@]2(C)CC3=O)O[C@H](COC(C)=O)[C@@H]1OC(C)=O
IC50 (Ebolavirus [16]): 0.0592 µM
IC50 (Marburgvirus [5]): 2.29 µM
